Calls of active or inactive are those of the source.
Key:
Cytochrome P450 3A4 = Cytochrome P450 3A4 (Homo sapiens, UniProt P08684);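 further: CYP3A4 tested as one member of a cytochrome P450 panel screen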
[1] = HEK-293T cell viability reduction – luminescence, B-cell screen hits, cytotoxicity control for BCR NF-kB inhibitor project, dose response (AID 489021); type: functional, cell-based;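 further: HEK-293T cells carrying an NF-kB luciferase reporter; cells exposed to compound for about 14 hours before viability readout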
[2] = target: T1, Microphthalmia-associated transcription factor (Homo sapiens, UniProt O75030); experiment: reducers of TRPM1 reporter luminescence, concentration series – cell-based, SK-MEL-5, cherry-picked, set 3, MITF inhibitor project, dose response (AID 493073); type: functional;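 further: SK-MEL-5 melanoma cells with luciferase driven by the MITF target TRPM1 promoter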
T1 sequence (O75030 whole entry): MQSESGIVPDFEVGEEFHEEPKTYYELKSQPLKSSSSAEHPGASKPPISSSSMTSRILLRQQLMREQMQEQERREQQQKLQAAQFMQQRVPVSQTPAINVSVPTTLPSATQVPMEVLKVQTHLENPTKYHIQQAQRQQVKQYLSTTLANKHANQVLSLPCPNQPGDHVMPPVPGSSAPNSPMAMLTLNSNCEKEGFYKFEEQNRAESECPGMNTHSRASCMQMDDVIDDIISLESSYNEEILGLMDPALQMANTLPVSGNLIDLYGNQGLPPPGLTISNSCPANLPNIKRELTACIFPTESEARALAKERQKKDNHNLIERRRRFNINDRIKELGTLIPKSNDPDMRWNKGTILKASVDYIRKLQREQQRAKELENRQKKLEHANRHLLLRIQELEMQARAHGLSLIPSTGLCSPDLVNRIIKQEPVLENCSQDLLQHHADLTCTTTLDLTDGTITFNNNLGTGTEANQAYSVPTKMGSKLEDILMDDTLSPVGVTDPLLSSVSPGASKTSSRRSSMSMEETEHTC

[3] = target: T2, Heat shock factor protein 1 (Mus musculus, UniProt P38532); experiment: decrease of HSF1-responsive luciferase luminescence – cell-based, NIH3T3, dose retest, confirmation (AID 2382); type: functional;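 further: NIH3T3 fibroblasts with HSF1-driven luciferase reporter stressed by proteasome inhibitor MG132; luminescence from HSF1-driven luciferase expression after 8 hours of MG132 stress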
T2 sequence (P38532 whole entry): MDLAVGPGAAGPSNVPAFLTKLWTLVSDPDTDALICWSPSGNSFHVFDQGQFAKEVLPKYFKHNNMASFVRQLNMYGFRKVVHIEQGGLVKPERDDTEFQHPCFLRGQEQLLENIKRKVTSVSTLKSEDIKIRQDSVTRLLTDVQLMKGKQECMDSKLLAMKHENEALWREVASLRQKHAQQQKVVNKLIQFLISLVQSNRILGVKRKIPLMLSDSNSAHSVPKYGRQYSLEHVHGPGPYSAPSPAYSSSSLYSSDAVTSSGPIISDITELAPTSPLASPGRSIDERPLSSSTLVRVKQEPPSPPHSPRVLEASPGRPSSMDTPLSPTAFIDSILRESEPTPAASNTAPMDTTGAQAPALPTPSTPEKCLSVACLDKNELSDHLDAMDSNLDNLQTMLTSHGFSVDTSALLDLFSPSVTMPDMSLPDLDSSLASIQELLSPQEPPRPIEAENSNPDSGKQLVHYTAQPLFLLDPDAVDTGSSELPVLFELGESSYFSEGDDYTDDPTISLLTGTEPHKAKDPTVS

BJ [4] = experiment: cells; type: functional, cell-based; conditions: Homo sapiens
[5] = DRD fibroblast viability loss – cell-based, non-viral oncogenic, luminescence, dose response (AID 1934); type: functional; conditions: Homo sapiens
[6] = HEK-293T viability loss after treatment – luminescence, T-cell screen hits, cytotoxicity control for TCR NF-kB inhibitor project, dose response (AID 489026); type: functional, cell-based;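 further: cells exposed to compound about 14 hours before the viability readout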
BJ [7] = experiment: BJ-TERT-LT-ST fibroblast viability loss – cell-based, RAS-independent, luminescence, dose response (AID 1935); type: functional; conditions: Homo sapiens;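 further: BJ fibroblasts immortalized with TERT plus LT and ST oncogenes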
BJ [8] = experiment: BJ-TERT fibroblast viability loss – cell-based, RAS-independent, luminescence, dose response (AID 1933); type: functional; conditions: Homo sapiens
cells [9] = type: functional
[10] = THP-1 cell cytotoxicity, dose response, cytotoxicity control for non-replicating M. tuberculosis project (AID 489025); type: functional
[11] = Vero E6 cell cytotoxicity, dose response, cytotoxicity control for non-replicating M. tuberculosis project, secondary assay (AID 492998); type: functional, VeroE6; conditions: Vero C1008
[12] = microbe, parasite or virus in culture; type: functional; conditions: Mycobacterium tuberculosis
[13] = target: Glucose-6-phosphate 1-dehydrogenase (Homo sapiens, UniProt P11413); experiment: inhibition of Homo sapiens G6PD, dose series – biochemical, fluorescence, selectivity assay for P. falciparum G6PD inhibitor project, dose response (AID 504792); type: functional
Glucose-6-phosphate 1-dehydrogenase, sequence (P11413 whole entry): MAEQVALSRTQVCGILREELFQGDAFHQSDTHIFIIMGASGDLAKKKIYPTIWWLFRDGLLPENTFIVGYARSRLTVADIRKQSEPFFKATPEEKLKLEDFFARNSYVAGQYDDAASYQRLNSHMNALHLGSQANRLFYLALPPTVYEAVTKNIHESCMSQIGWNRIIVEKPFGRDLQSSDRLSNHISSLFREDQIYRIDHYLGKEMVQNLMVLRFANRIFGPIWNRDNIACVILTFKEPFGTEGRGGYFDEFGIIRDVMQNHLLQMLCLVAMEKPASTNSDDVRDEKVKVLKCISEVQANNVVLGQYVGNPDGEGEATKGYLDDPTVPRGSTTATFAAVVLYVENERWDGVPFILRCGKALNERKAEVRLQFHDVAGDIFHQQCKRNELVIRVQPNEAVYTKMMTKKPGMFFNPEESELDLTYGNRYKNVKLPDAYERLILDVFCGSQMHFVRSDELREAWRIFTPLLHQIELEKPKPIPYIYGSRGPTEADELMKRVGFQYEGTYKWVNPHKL

Vero [14] = experiment: cells; type: functional, cell-based; conditions: Chlorocebus sabaeus
Cytochrome P450 2C9 = Cytochrome P450 2C9 (Homo sapiens, UniProt P11712)
Cytochrome P450 2C9, sequence (P11712 whole entry): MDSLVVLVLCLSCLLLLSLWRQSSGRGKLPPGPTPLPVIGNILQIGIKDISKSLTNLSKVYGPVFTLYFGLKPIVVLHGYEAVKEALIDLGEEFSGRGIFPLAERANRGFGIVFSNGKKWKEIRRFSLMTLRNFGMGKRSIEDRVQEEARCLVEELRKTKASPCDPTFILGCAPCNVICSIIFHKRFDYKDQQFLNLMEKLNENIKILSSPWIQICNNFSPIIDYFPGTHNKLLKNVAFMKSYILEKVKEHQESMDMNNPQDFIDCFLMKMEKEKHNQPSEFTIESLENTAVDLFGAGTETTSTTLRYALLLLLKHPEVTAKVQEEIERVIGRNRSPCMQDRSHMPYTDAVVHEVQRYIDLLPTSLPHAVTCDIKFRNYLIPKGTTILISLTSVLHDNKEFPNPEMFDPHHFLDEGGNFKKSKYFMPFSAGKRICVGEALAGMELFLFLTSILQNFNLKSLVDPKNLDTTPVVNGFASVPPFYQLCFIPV

[15] = Trypanosoma cruzi growth suppression in host cells – NIH3T3 host cells, beta-gal luminescence, confirmation (AID 2044); type: functional, cell-based;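 further: intracellular parasites grown in NIH/3T3 mouse fibroblasts as host cells; luminescent beta-galactosidase reporter signal from transgenic T. cruzi replicating inside host cells; inhibitors lower the luminescence signal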
Vero [16] = experiment: cells; type: functional; conditions: Chlorocebus sabaeus
[17] = target: T3, Type-1 angiotensin II receptor (Homo sapiens, UniProt P30556); experiment: antagonism of angiotensin II type 1 receptor – cell-based, uHTS hits, selectivity assay for APJ receptor antagonist project, dose response (AID 463214); type: functional;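 further: antagonist potency against angiotensin II stimulated AT1 response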
T3 sequence (P30556 whole entry): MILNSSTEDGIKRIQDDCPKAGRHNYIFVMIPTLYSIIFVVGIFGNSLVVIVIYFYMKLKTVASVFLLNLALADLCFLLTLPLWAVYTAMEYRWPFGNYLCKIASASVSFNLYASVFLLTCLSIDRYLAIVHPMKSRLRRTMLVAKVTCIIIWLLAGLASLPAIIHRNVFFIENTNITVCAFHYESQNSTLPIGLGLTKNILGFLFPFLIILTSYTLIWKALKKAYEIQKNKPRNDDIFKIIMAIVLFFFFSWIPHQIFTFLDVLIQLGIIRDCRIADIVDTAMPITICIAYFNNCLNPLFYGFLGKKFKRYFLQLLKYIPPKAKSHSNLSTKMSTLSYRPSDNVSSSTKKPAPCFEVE

cells [18] = type: functional, cell-based
[19] = reduction of Shn3 3'UTR-driven luciferase in osteoblasts – cell-based, Clone20 osteoblasts, firefly luciferase, cherry-picked, dose response (AID 624132); type: functional;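 further: firefly luciferase luminescence from reporter carrying the Shn3 3'UTR in osteoblasts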
Streptococcus = experiment: GAS UMAA2166 growth inhibition – luminescence, BacTiterGlo, counter-screen for streptokinase expression inhibitor project, dose response (AID 1915); type: functional, organism-based;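 further: potency for reduction of bacterial viability or growth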
[20] = test system: Streptococcus sp. 'group A'; experiment: Streptococcus pyogenes SK(-)GAS viability under kanamycin – luminescence, BacTiterGlo, confirmation, counter-screen for streptokinase expression inhibitor project, dose response (AID 1900); type: functional, organism-based
Cytochrome P450 1A2 = target: T4, Cytochrome P450 1A2 (Homo sapiens, UniProt P05177);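 further: PubChem cytochrome P450 panel assay, CYP1A2 panel member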
T4 sequence (P05177 whole entry): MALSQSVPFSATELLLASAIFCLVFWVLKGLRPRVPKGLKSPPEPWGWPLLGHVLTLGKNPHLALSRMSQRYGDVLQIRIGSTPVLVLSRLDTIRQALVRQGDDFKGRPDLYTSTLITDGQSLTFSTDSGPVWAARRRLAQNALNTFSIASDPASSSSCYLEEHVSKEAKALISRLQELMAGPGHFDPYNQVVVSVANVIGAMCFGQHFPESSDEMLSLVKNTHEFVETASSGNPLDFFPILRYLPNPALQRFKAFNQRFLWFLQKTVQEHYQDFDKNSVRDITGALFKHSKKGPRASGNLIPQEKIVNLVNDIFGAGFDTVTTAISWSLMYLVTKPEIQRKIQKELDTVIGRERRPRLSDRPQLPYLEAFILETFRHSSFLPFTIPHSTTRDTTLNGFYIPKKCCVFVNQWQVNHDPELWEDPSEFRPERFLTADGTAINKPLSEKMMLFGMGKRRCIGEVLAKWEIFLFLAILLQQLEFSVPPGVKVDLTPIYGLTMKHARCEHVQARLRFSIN

[21] = loss of viability in HepG2 cells – cell-based, CellTiter-Glo, cherry-picked, cytotoxicity control for Shn3 inhibitor project, dose response (AID 624134); type: functional
Cytochrome P450 2C19 = Cytochrome P450 2C19 (Homo sapiens, UniProt P33261); experiment: Cytochrome panel assay with activity outcomes. Panel member name: p450-cyp2c19 Compounds with AC50 equal or less than 10 uM are considered active; type: functional; conditions: read-out: AC50
Cytochrome P450 2C19, sequence (P33261 whole entry): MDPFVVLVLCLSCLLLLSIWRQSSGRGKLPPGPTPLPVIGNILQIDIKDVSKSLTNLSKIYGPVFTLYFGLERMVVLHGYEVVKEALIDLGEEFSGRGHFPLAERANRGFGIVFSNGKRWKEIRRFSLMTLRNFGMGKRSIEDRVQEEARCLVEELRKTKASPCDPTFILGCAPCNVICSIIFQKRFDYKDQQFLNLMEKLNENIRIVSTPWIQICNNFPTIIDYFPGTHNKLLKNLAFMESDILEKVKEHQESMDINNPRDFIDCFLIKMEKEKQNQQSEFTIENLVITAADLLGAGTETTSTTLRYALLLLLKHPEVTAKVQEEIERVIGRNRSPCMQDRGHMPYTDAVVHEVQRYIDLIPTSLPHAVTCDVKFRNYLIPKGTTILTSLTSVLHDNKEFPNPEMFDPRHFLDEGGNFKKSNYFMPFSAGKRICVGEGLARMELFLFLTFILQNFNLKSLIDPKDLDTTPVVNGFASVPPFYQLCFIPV

Beta-galactosidase = Beta-galactosidase (Escherichia coli, UniProt Q8VNN2); experiment: PubChem AID 485352; type: functional
Beta-galactosidase, sequence (Q8VNN2 whole entry): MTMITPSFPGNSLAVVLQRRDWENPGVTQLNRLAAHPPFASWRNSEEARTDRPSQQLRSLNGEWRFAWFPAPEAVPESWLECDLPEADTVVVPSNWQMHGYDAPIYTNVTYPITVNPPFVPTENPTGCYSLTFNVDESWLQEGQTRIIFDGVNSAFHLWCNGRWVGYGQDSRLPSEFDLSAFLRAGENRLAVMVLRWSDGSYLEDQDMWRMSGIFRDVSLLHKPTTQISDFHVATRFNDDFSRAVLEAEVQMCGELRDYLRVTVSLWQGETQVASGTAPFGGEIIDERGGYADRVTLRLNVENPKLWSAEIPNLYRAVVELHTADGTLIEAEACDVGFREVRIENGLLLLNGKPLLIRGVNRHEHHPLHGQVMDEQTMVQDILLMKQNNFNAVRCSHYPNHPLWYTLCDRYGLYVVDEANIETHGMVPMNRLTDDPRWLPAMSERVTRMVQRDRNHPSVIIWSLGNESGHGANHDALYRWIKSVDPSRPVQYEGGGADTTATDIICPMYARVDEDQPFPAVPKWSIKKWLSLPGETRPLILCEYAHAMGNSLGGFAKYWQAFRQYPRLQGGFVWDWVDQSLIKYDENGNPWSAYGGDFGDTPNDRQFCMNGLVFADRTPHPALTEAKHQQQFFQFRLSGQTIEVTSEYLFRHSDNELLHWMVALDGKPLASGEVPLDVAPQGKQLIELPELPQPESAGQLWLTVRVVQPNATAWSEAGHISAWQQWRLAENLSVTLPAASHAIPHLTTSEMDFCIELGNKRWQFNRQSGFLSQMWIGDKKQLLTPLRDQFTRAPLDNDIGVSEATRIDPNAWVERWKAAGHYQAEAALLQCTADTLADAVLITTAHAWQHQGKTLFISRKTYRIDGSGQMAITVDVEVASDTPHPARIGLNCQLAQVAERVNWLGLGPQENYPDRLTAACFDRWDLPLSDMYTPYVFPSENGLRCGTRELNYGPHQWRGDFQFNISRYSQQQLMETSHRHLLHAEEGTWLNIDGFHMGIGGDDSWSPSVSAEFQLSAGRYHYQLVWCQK

[22] = NIH-3T3 fibroblast cytotoxicity, dose response, cytotoxicity control, cell-based, fluorescence, Alamar Blue, secondary assay (AID 2327); type: functional;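 further: NIH-3T3 mouse fibroblasts cultured with fluconazole at 8 µg/mL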
[23] = luciferase reporter signal suppression in cells – H4 neuroglioma cells, luminescence, dose response (AID 1990); type: functional, cell-based
[24] = non-specific 3'UTR reporter inhibition in Clone20-Shn3RL – cell-based, Renilla luciferase, cherry-picked, counter-screen for Shn3 inhibitor project, dose response (AID 624133); type: functional
[25] = alpha-synuclein stem-loop luciferase translation blockers – H4 neuroglioma cells, luminescence, confirmation (AID 1988); type: functional, cell-based
cells [26] = type: functional, cell-based; remark: listed apart in the source
[27] = NIH3T3 cell viability loss – ATP luminescence, mouse fibroblasts, counter-screen, dose response (AID 2010); type: functional, cell-based;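 further: cells exposed to compound for about 90 hours before reading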
[28] = fluconazole-exposed Candida albicans growth modulators – fluorescence, retest, confirmation (AID 2467); type: functional, cell-based
[29] = Luminescence Cell-Based Dose Response HTS to Identify Inhibitors of 5'UTR Stem-Loop Driven Prion Protein mRNA Translation in H4 Neuroglioblastoma Cells. [Related pubchem assays: 1827 (Project Summary), 1813 (Primary HTS)]; type: functional
[30] = viability of HCT116 lacking mutant beta-catenin – cell-based, human colon tumor, dose response (AID 1045); type: functional;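 further: HCT116 colon tumor cells with beta catenin knocked out; cells exposed to compound for 60 hours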
[31] = viability of PTEN-deleted HCT116 cells – cell-based, HCT116 PTEN knockout, dose response (AID 1047); type: functional;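 further: HCT116 colon tumor cells with PTEN knocked out; cells exposed to compound for 60 hours before readout; potency for loss of cell viability measured by luminescence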

Cytochrome P450 3A4, sequence (P08684 whole entry): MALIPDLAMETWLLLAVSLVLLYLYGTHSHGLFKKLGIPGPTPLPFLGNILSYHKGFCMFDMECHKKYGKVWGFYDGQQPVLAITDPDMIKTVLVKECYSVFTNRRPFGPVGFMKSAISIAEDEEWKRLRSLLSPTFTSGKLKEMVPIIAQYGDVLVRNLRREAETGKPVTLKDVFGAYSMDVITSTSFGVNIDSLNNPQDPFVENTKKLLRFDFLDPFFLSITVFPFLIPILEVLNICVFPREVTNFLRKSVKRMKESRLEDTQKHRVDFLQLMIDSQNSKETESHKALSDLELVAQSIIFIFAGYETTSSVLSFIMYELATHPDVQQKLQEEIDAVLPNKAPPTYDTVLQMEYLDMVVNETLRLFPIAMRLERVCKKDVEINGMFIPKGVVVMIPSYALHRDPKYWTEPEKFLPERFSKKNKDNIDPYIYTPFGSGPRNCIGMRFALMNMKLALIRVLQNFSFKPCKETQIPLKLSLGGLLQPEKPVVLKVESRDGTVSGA

O=C(c1csnn1)N1CCC2(CC1)CN(c1ccccn1)C2
AC50 (Cytochrome P450 3A4): inconclusive

O=C1CCC2S/C(=C/Nc3ccc(C(F)(F)F)cc3)C(=O)N12 (stereo not given)
IC50 [1]: > 80 µM (inactive)
AC50 [2]: 3.57 µM (active)
EC50 [3]: 2.44 µM (active)

CCOc1ccccc1C1CC(=O)Nc2cc(C)c(C)cc21 (stereo not given)
EC50 (BJ [4]): 53.3 µM (active)
EC50 [5]: 18.1 µM (active)
IC50 [6]: > 80 µM (inactive)
EC50 (BJ [7]): 23.5 µM (active)
EC50 (BJ [8]): 14 µM (active)

CC(C)Cn1c([N+](=O)[O-])nc2c1c(=O)[nH]c(=O)n2C
IC50 (cells [9]): 5.98 µM (active)
IC50 [1]: 47.3 µM (inactive)
CC50 [10]: 9.18 µM (active)
CC50 [11]: 14.6 µM (active)
CC50 [12]: 12.4 µM (active)
IC50 [13]: > 80 µM (inactive)

Cc1nc(-n2nc3c(c2O)CCCC3)[nH]c(=O)c1Cc1ccccc1
AC50 (Cytochrome P450 3A4): inconclusive
IC50 (Vero [14]): > 25 µM (active)
AC50 (Cytochrome P450 2C9): 4.47 µM (inconclusive)
EC50 [15]: 1.17 µM (active)
CC50 (Vero [16]): 9.47 µM (active)
IC50 [17]: 14.2 µM (active)
EC50 (cells [18]): 16.8 µM (active)
AC50 [19]: 4.44 µM (active)
EC50 (Streptococcus): 4.47 µM (active)
EC50 [20]: 1.14 µM (active)
AC50 (Cytochrome P450 1A2): 14.1 µM (inconclusive)
AC50 [21]: 57 µM (active)
AC50 (Cytochrome P450 2C19): 25.1 µM (inconclusive)
EC50 (Beta-galactosidase): > 40 µM (inactive)
EC50 [22]: > 150 µM (inconclusive)
EC50 [23]: 8.07 µM (active)
AC50 [24]: 2.37 µM (active)
EC50 [25]: 6.76 µM (active)
EC50 (cells [26]): > 350 µM (not active)
EC50 [27]: 1.06 µM (active)
EC50 [28]: 0.554 µM (active)
EC50 [29]: 14.9 µM (active)

O=C1Nc2ccccc2/C1=C/C(=O)c1cccs1
CC50 (Vero [16]): 17.6 µM (active)
IC50 (cells [9]): 8.52 µM (active)
EC50 [3]: > 195 µM (not active)
CC50 [10]: 21.1 µM (active)
EC50 [30]: 5.7 µM (active)
EC50 [31]: 7.47 µM (active)
EC50 [22]: > 150 µM (inactive)
CC50 [11]: 14.4 µM (active)
EC50 [28]: 1.75 µM (active)

O=C1C2CCCN2C(c2cccs2)N1c1ccc(Cl)cc1 (stereo not given)
IC50 (Vero [14]): 17.1 µM (active)
EC50 [23]: 45.2 µM (active)
EC50 [25]: 49.9 µM (active)
EC50 [29]: 17 µM (active)

— ChEMBL document CHEMBL1201862, “PubChem BioAssay data set” (2004)
